From US20250064791A1, “5-[[4-[2-[5-(1-HYDROXYETHYL)PYRIDIN-2-YL]ETHOXY]PHENYL]METHYL]-1,3-THIAZOLIDINE-2,4-DIONE AND ITS SALTS FOR USE IN THE TREATMENT OF MITOCHONDRIAL DISEASES” (MINORYX THERAPEUTICS S.L., priority 2018, published 2025)
pIC50: −log10 of the molar value.

Key:
[1] = tested on: wild type MDA MB 231 cells; test: Mitochondrial respiration (OCR), Seahorse, wild type MDA MB231 cells; format: cell-based; settings: cells with active MPC
Experimental: (§1) To determine whether MIN-102 has any effect on pyruvate-mediated mitochondrial respiration, the extracellular flux analyzer Seahorse was used as described in Compan et al. Seahorse experiments were performed in the following cell lines: HeLa (Cervix cancer cells), A549 (lung cancer cells), wild type MDA MB 231, and MDA MB 231 in which MPC2 has been deleted, leading to inactivation of the MPC (MDA MB231 KO). MDA MB231 cells are epithelial breast cancer cells. Cells were incubated with increasing concentrations of the compounds for one hour at 37° C. before oxygen consumption rate (OCR) measurements. The Seahorse analyzer allowed to measure basal and maximal respiration measured upon depolarization with 1 μM CCCP.
(§2) The KO cells have been deleted of the MPC2 gene and therefore they display no MPC activity. […] OCR values are expressed as ratios of OCR in the presence of different concentrations of the tested compound over the OCR in PBS alone.

[2] = tested on: MDA MB231 KO cells; test: Mitochondrial respiration (OCR), Seahorse, MDA MB231 KO cells (MPC2 deleted); format: cell-based; settings: MPC activity genetically deleted (MPC2 KO)
Experimental: as §1, §2

[3] = tested on: adiponectin; test: Plasma adiponectin levels in Sprague Dawley rats (ELISA); format: in vivo; settings: 54 mg/Kg/day for 7 days, plasma 1 h after last administration, vs vehicle
Experimental: Evaluation of the effect of Compounds of the Disclosure on adiponectin was performed in Sprague Dawley rats. The rats were treated for 7 days with repeated doses of MIN-102 at 54 mg/Kg/day. Plasma were obtained at 1 h after the last M1N-102 administration. Adiponectin levels were measured by ELISA. Results were represented as mean+standard error of the mean of n=8. Data were analyzed by Kruskal-Wallis followed by the Dunn post-hoc test versus the vehicle group (****,p<0.0001).

[4] = tested on: MCD diet fed C57BL6/J mice; test: Methionine Choline Deficient (MCD) diet NASH mouse model; format: in vivo, C57BL6/J male mice; settings: 62.5 mg/kg BID orally
Experimental: The preventive effects of MIN-102 was evaluated in a 7-week Methionine Choline Deficient (MCD) diet NASH mouse model (Verdelho Machado et al.). After the acclimation period, C57BL6/J male mice (n=20) were weighed and randomized into 2 homogenous treatment groups based on body weight (n=10/group), put on a MCD diet, and treated BID orally with vehicle or MIN-102 for 7 weeks.
MIN-102 was dosed 62.5 mg/kg BID orally by gavage.
After the acclimation period, C57BL6/J male mice (n=20) were weighed and randomized into 2 homogenous treatment groups based on body weight (n=10/group), put on a MCD diet, and treated BID orally with a vehicle or MIN-102 (125 mg/Kg/day) for 7 weeks. Body weight was measured 3 times/week until the end of the experimental phase.
At 7 weeks of diet/treatment, mice were weighed and treated at ˜08:00 am in the morning, then bled (maximal volume/EDTA) at ˜1:00 pm. Plasma was then immediately isolated and stored at −80° C. prior to assay plasma ALT and AST. The plasma volume left over was stored at −80° C. for eventual additional analysis.
After blood collection, the mice were sacrificed by cervical dislocation under isoflurane anesthesia and exsanguinated with sterile saline.
Histology analysis was performed (oil red O, H&E and Sirius Red staining) for NAFLD scoring system (NAS) for liver steatosis, inflammation, fibrosis and hepatocyte ballooning.

[5] = humans, compared with pioglitazone; from PCT/IB2017/057587; cited from earlier work
[6] = biological target: mitochondrial pyruvate carrier (MPC) (Homo sapiens (Human), UniProt O95563+Q9Y5U8); test: MPC inhibitory activity, BRET assay in HEK cells; format: cell-based
mitochondrial pyruvate carrier (MPC), sequence (Q9Y5U8 whole entry, the tested form may be a part): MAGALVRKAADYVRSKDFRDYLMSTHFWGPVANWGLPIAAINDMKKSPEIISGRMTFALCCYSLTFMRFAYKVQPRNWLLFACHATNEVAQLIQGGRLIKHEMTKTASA
mitochondrial pyruvate carrier (MPC), sequence (O95563 whole entry, the tested form may be a part): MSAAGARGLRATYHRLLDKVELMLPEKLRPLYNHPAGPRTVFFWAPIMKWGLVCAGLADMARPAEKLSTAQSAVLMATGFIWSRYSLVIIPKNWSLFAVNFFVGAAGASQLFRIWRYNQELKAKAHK
Experimental: The MPC is a heterodimer composed of two subunits, MPC1 and MPC2. MPC1 and MPC2 interact to form an active carrier. In the assay, MPC2 was fused to Rluc8 (Donor) and MPC1 to Venus (Acceptor). These chimeric proteins were stably expressed in HEK cells. BRET activity was measured following addition of coelenterazine in the culture medium. Coelenterazine enters into cells and in contact with luciferase Rluc8 emits light, which activates the emission of fluorescence by the Acceptor, provided the distance between the Donor and Acceptor is <[…]. If the distance between Donor and Acceptor is >[…], no BRET activity is measured. The level of BRET activity reflects a change in the conformation of the MPC: it is high when the carrier is in a closed conformation, low when the carrier is at rest and intermediary when it transports pyruvate. In this case, the BRET activity is the mean value between the BRET value when the carrier is at rest (Maximal distance between Donor and Acceptor) and the BRET value when it is closed (Shortest distance between Donor and Acceptor)

Structure (SMILES): CC(O)c1ccc(CCOc2ccc(CC3SC(=O)NC3=O)cc2)nc1 (racemic) [MIN-102, 5-[[4-[2-[5-(1-hydroxyethyl)pyridin-2-yl]ethoxy]phenyl]methyl]-1,3-thiazolidine-2,4-dione]
- effect on oxygen consumption [1]: inhibits oxygen consumption in a MPC dependent manner
- effect on oxygen consumption [2]: does not inhibit oxygen consumption
- adiponectin levels in plasma [3]: significantly increased
- hepatic cholesterol levels ([4]; 7 weeks): did not show a change
- oil red o staining % ([4]; 7 weeks, vs vehicle): extremely low
- reduction in hepatic triglycerides levels ([4]; 7 weeks, vs vehicle): 92%
- reduction of plasma ALT level ([4]; 7 weeks, vs vehicle): 78%
- reduction of plasma AST level ([4]; 7 weeks, vs vehicle): 55%
- Mean NAS group score ([4]; 7 weeks, histology): 0.44±01
- liver inflammation ([4]; 7 weeks, histology): total disappearance of inflammation
- steatosis score ([4]; 7 weeks, histology, vs vehicle): blunted steatosis score
- body weight loss ([4]; day 14 to day 50, vs vehicle): less severe decline in body weight loss
- variability in exposure (PK variability) [5]: less variability in exposure than pioglitazone

Structure (SMILES): CN(CCOc1ccc(CC2SC(=O)NC2=O)cc1)c1ccccn1 (centres unmarked) [Rosiglitazone]
- pIC50 [6]: 5.70
